Results reported in patent US12077503B2, “Substituted cyclic amides and their use as herbicides” (FMC CORPORATION, priority 2015, dated 2024).

How the values were obtained:
Type in all cases: in vivo
[1] = test system: velvetleaf (Abutilon theophrasti); assay: Test G Post-Emergence Protocol; details: Abutilon theophrasti, post-emergence, 312 h; for pest or weed control at 15.625 g/ha: 15.625 g ai/ha, evaluated after 13 days (100=total damage to plant; 0=no damage to plant), read-out: Velvetleaf damage rating; for pest or weed control at 62.5 g/ha: 62.5 g ai/ha, read-out: Velvetleaf damage rating (100=total damage to plant; 0=no damage to plant); for pest or weed control at 62.5 g/ha / pest or weed control at 250 g/ha: evaluated after 13 days; for pest or weed control at 250 g/ha: 250 g ai/ha, read-out: damage to plant, Velvetleaf (100=total damage to plant; 0=no damage to plant)
Method in brief: (§1)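 Scores run 0 (no damage) to 100 (total damage) and were taken 13 days after spraying. Plants had been raised in pots for 8 days under glasshouse control (24/16 °C, 14 h photoperiod, 65% humidity) and then treated at 15.625, 62.5 or 250 g/ha.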

[2] = test system: redroot pigweed (Amaranthus retroflexus); assay: Test G Post-Emergence Protocol; details: Amaranthus retroflexus, post-emergence, 312 h; for pest or weed control at 15.625 g/ha: 15.625 g ai/ha, evaluated after 13 days (100=total damage to plant; 0=no damage to plant), read-out: Pigweed, Redroot damage rating; for pest or weed control at 62.5 g/ha: 62.5 g ai/ha, read-out: Pigweed, Redroot damage rating (100=total damage to plant; 0=no damage to plant); for pest or weed control at 62.5 g/ha / pest or weed control at 250 g/ha: evaluated after 13 days; for pest or weed control at 250 g/ha: 250 g ai/ha, read-out: damage to plant, Pigweed, Redroot (100=total damage to plant; 0=no damage to plant)
Method in brief: as §1

[3] = test system: barnyardgrass (Echinochloa crus-galli); assay: Test G Post-Emergence Protocol; details: Echinochloa crus-galli, post-emergence, 312 h; for pest or weed control at 15.625 g/ha: 15.625 g ai/ha, evaluated after 13 days (100=total damage to plant; 0=no damage to plant), read-out: Barnyardgrass damage rating; for pest or weed control at 62.5 g/ha: 62.5 g ai/ha, read-out: Barnyardgrass damage rating (100=total damage to plant; 0=no damage to plant); for pest or weed control at 62.5 g/ha / pest or weed control at 250 g/ha: evaluated after 13 days; for pest or weed control at 250 g/ha: 250 g ai/ha, read-out: damage to plant, Barnyardgrass (100=total damage to plant; 0=no damage to plant)
Method in brief: as §1

corn (Zea mays) [4] = assay: Test G Post-Emergence Protocol; details: Zea mays, post-emergence, 312 h; for plant injury at 15.625 g/ha: 15.625 g ai/ha, evaluated after 13 days (100=total damage to plant; 0=no damage to plant), read-out: Corn damage rating; for plant injury at 62.5 g/ha: 62.5 g ai/ha, read-out: Corn damage rating (100=total damage to plant; 0=no damage to plant); for plant injury at 62.5 g/ha / plant injury at 250 g/ha: evaluated after 13 days; for plant injury at 250 g/ha: 250 g ai/ha, read-out: damage to plant, Corn (100=total damage to plant; 0=no damage to plant)
Method in brief: as §1

[5] = test system: giant foxtail (Setaria faberi); assay: Test G Post-Emergence Protocol; details: Setaria faberi, post-emergence, 312 h; for pest or weed control at 15.625 g/ha: 15.625 g ai/ha, evaluated after 13 days (100=total damage to plant; 0=no damage to plant), read-out: Foxtail, Giant damage rating; for pest or weed control at 62.5 g/ha: 62.5 g ai/ha, read-out: Foxtail, Giant damage rating (100=total damage to plant; 0=no damage to plant); for pest or weed control at 62.5 g/ha / pest or weed control at 250 g/ha: evaluated after 13 days; for pest or weed control at 250 g/ha: 250 g ai/ha, read-out: damage to plant, Foxtail, Giant (100=total damage to plant; 0=no damage to plant)
Method in brief: as §1

[6] = test system: ivy-leaved morning glory (Ipomoea hederacea); assay: Test G Post-Emergence Protocol; details: Ipomoea, post-emergence, 312 h; for pest or weed control at 15.625 g/ha: 15.625 g ai/ha, evaluated after 13 days (100=total damage to plant; 0=no damage to plant), read-out: Morningglory, Ivy-leaved damage rating; for pest or weed control at 62.5 g/ha: 62.5 g ai/ha, read-out: Morningglory, Ivy-leaved damage rating (100=total damage to plant; 0=no damage to plant); for pest or weed control at 62.5 g/ha / pest or weed control at 250 g/ha: evaluated after 13 days; for pest or weed control at 250 g/ha: 250 g ai/ha, read-out: damage to plant, Morningglory, Ivy-leaved (100=total damage to plant; 0=no damage to plant)
Method in brief: as §1

[7] = test system: velvetleaf (Abutilon theophrasti); assay: Test G Pre-Emergence Protocol; details: Abutilon theophrasti, pre-emergence, 312 h, evaluated after 13 days; for pest or weed control at 15.625 g/ha: 15.625 g ai/ha; for pest or weed control at 15.625 g/ha / pest or weed control at 250 g/ha: read-out: Velvetleaf damage rating (100=total damage to plant; 0=no damage to plant); for pest or weed control at 62.5 g/ha: 62.5 g ai/ha, 100=total damage to plant, 0=no damage to plant, read-out: plant damage rating, Velvetleaf; for pest or weed control at 250 g/ha: 250 g ai/ha
Method in brief: (§2)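 Pots of seeds in standard soil were grown for one day in a glasshouse (24/16 °C day/night, 14 h light, 65% humidity), then sprayed with compound in acetone/water 50:50 with 0.5% Tween 20 at 15.625, 62.5 or 250 g/ha. Damage was scored after 13 days on a 0 (none) to 100 (total) scale.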

[8] = test system: redroot pigweed (Amaranthus retroflexus); assay: Test G Pre-Emergence Protocol; details: Amaranthus retroflexus, pre-emergence, 312 h, evaluated after 13 days; for pest or weed control at 15.625 g/ha: 15.625 g ai/ha; for pest or weed control at 15.625 g/ha / pest or weed control at 250 g/ha: read-out: Pigweed, Redroot damage rating (100=total damage to plant; 0=no damage to plant); for pest or weed control at 62.5 g/ha: 62.5 g ai/ha, 100=total damage to plant, 0=no damage to plant, read-out: plant damage rating, Pigweed, Redroot; for pest or weed control at 250 g/ha: 250 g ai/ha
Method in brief: as §2

[9] = test system: barnyardgrass (Echinochloa crus-galli); assay: Test G Pre-Emergence Protocol; details: Echinochloa crus-galli, pre-emergence, 312 h, evaluated after 13 days; for pest or weed control at 15.625 g/ha: 15.625 g ai/ha, read-out: Barnyard grass damage rating (100=total damage to plant; 0=no damage to plant); for pest or weed control at 62.5 g/ha: 62.5 g ai/ha, 100=total damage to plant, 0=no damage to plant, read-out: plant damage rating, Barnyardgrass; for pest or weed control at 250 g/ha: 250 g ai/ha, read-out: Barnyardgrass damage rating (100=total damage to plant; 0=no damage to plant)
Method in brief: as §2

corn (Zea mays) [10] = assay: Test G Pre-Emergence Protocol; details: Zea mays, pre-emergence, 312 h, evaluated after 13 days; for plant injury at 15.625 g/ha: 15.625 g ai/ha; for plant injury at 15.625 g/ha / plant injury at 250 g/ha: read-out: Corn damage rating (100=total damage to plant; 0=no damage to plant); for plant injury at 62.5 g/ha: 62.5 g ai/ha, 100=total damage to plant, 0=no damage to plant, read-out: plant damage rating, Corn; for plant injury at 250 g/ha: 250 g ai/ha
Method in brief: as §2

[11] = test system: giant foxtail (Setaria faberi); assay: Test G Pre-Emergence Protocol; details: Setaria faberi, pre-emergence, 312 h, evaluated after 13 days; for pest or weed control at 15.625 g/ha: 15.625 g ai/ha; for pest or weed control at 15.625 g/ha / pest or weed control at 250 g/ha: read-out: Foxtail, Giant damage rating (100=total damage to plant; 0=no damage to plant); for pest or weed control at 62.5 g/ha: 62.5 g ai/ha, 100=total damage to plant, 0=no damage to plant, read-out: plant damage rating, Foxtail, Giant; for pest or weed control at 250 g/ha: 250 g ai/ha
Method in brief: as §2

[12] = test system: ivy-leaved morning glory (Ipomoea hederacea); assay: Test G Pre-Emergence Protocol; details: Ipomoea, pre-emergence, 312 h, evaluated after 13 days; for pest or weed control at 15.625 g/ha: 15.625 g ai/ha, read-out: Morning-glory, Ivy-leaved damage rating (100=total damage to plant; 0=no damage to plant); for pest or weed control at 62.5 g/ha: 62.5 g ai/ha, 100=total damage to plant, 0=no damage to plant, read-out: plant damage rating, Morningglory, Ivy-leaved; for pest or weed control at 250 g/ha: 250 g ai/ha, read-out: Morningglory, Ivy-leaved damage rating (100=total damage to plant; 0=no damage to plant)
Method in brief: as §2

Structure (SMILES)	pest or weed control at 15.625 g/ha [1] [%]	pest or weed control at 62.5 g/ha [1] [%]	pest or weed control at 250 g/ha [1] [%]	pest or weed control at 15.625 g/ha [2] [%]	pest or weed control at 62.5 g/ha [2] [%]	pest or weed control at 250 g/ha [2] [%]	pest or weed control at 15.625 g/ha [3] [%]	pest or weed control at 62.5 g/ha [3] [%]	pest or weed control at 250 g/ha [3] [%]	plant injury at 15.625 g/ha (corn (Zea mays) [4]) [%]	plant injury at 62.5 g/ha (corn (Zea mays) [4]) [%]	plant injury at 250 g/ha (corn (Zea mays) [4]) [%]	pest or weed control at 15.625 g/ha [5] [%]	pest or weed control at 62.5 g/ha [5] [%]	pest or weed control at 250 g/ha [5] [%]	pest or weed control at 15.625 g/ha [6] [%]	pest or weed control at 62.5 g/ha [6] [%]	pest or weed control at 250 g/ha [6] [%]	pest or weed control at 15.625 g/ha [7] [%]	pest or weed control at 62.5 g/ha [7] [%]	also measured
CN1C[C@@H](c2ccc(C(F)(F)F)cc2)[C@H](C(=O)Nc2cn[nH]c2)C1=O (racemic) [Compound 1646]	0	0	0	0	0	0	0	0	0	0	0	0	0	10	20	0	0	0	0	0	pest or weed control at 250 g/ha [7]: 0%; pest or weed control at 15.625 g/ha [8]: 0%; pest or weed control at 62.5 g/ha [8]: 0%; pest or weed control at 250 g/ha [8]: 0%; pest or weed control at 15.625 g/ha [9]: 0%; pest or weed control at 62.5 g/ha [9]: 0%; pest or weed control at 250 g/ha [9]: 0%; plant injury at 15.625 g/ha (corn (Zea mays) [10]): 0%; plant injury at 62.5 g/ha (corn (Zea mays) [10]): 0%; plant injury at 250 g/ha (corn (Zea mays) [10]): 0%; pest or weed control at 15.625 g/ha [11]: 0%; pest or weed control at 62.5 g/ha [11]: 0%; pest or weed control at 250 g/ha [11]: 0%; pest or weed control at 15.625 g/ha [12]: 0%; pest or weed control at 62.5 g/ha [12]: 0%; pest or weed control at 250 g/ha [12]: 0%
Cc1cncc(NC(=O)[C@@H]2C(=O)N(C)C[C@H]2c2ccc(C(F)(F)F)cc2)n1 (racemic) [Compound 1647]	0	0	40	0	0	30	0	0	50	0	0	10	0	30	70	0	0	20	0	0	pest or weed control at 250 g/ha [7]: 10%; pest or weed control at 15.625 g/ha [8]: 0%; pest or weed control at 62.5 g/ha [8]: 0%; pest or weed control at 250 g/ha [8]: 20%; pest or weed control at 15.625 g/ha [9]: 0%; pest or weed control at 62.5 g/ha [9]: 0%; pest or weed control at 250 g/ha [9]: 0%; plant injury at 15.625 g/ha (corn (Zea mays) [10]): 0%; plant injury at 62.5 g/ha (corn (Zea mays) [10]): 0%; plant injury at 250 g/ha (corn (Zea mays) [10]): 0%; pest or weed control at 15.625 g/ha [11]: 0%; pest or weed control at 62.5 g/ha [11]: 0%; pest or weed control at 250 g/ha [11]: 70%; pest or weed control at 15.625 g/ha [12]: 0%; pest or weed control at 62.5 g/ha [12]: 0%; pest or weed control at 250 g/ha [12]: 0%
